Experimental data reported in the NIST ThermoML archive (doi:10.1021/je060271a).

Settings: Liquid, Vibrating tube method

CCCCCCCC(=O)OCC(COC(=O)CCCCCCC)(COC(=O)CCCCCCC)COC(=O)CCCCCCC [pentaerythritol tetraoctanoate]
Settings	mass density [kg/m3]
323.15 K, 31267 kPa	960.2
323.15 K, 31296 kPa	960.3
323.15 K, 31325 kPa	960.2
323.15 K, 31360 kPa	960.3
323.15 K, 31389 kPa	960.2
323.15 K, 31418 kPa	960.1
323.15 K, 31452 kPa	960.2
323.15 K, 31481 kPa	960.3
323.15 K, 31510 kPa	960.4
323.15 K, 31540 kPa	960.4
323.15 K, 31575 kPa	960.3
323.15 K, 31604 kPa	960.4
323.15 K, 31640 kPa	960.3
323.15 K, 31669 kPa	960.4
323.15 K, 31699 kPa	960.3
323.15 K, 31731 kPa	960.4
323.15 K, 31761 kPa	960.4
323.15 K, 31785 kPa	960.4
323.15 K, 31827 kPa	960.5
323.15 K, 31856 kPa	960.5
323.15 K, 31892 kPa	960.5
323.15 K, 31922 kPa	960.5
323.15 K, 31952 kPa	960.6
323.15 K, 31987 kPa	960.6
323.15 K, 32018 kPa	960.7
323.15 K, 32048 kPa	960.5
323.15 K, 32084 kPa	960.6
323.15 K, 32115 kPa	960.6
323.15 K, 32147 kPa	960.7
323.15 K, 32178 kPa	960.7
323.15 K, 32208 kPa	960.8
323.15 K, 32244 kPa	960.7
323.15 K, 32275 kPa	960.8
323.15 K, 32305 kPa	960.6
323.15 K, 32343 kPa	960.8
323.15 K, 32374 kPa	960.8
323.15 K, 32404 kPa	960.6
323.15 K, 32442 kPa	960.8
323.15 K, 32467 kPa	960.8
323.15 K, 32504 kPa	961
323.15 K, 32542 kPa	960.9
323.15 K, 32574 kPa	960.9
323.15 K, 32605 kPa	961
323.15 K, 32642 kPa	960.9
323.15 K, 32706 kPa	961
323.15 K, 32744 kPa	961.1
323.15 K, 32776 kPa	961.1
323.15 K, 32838 kPa	961.1
323.15 K, 32877 kPa	961.1
323.15 K, 32909 kPa	961
323.15 K, 32941 kPa	961.1
323.15 K, 32980 kPa	961
323.15 K, 33012 kPa	961.2
323.15 K, 33050 kPa	961.1
323.15 K, 33083 kPa	961.2
323.15 K, 33115 kPa	961.2
323.15 K, 33147 kPa	961.2
323.15 K, 33186 kPa	961.2
323.15 K, 33219 kPa	961.3
323.15 K, 33258 kPa	961.2
323.15 K, 33291 kPa	961.3
323.15 K, 33324 kPa	961.3
323.15 K, 33363 kPa	961.4
323.15 K, 33396 kPa	961.5
323.15 K, 33429 kPa	961.3
323.15 K, 33470 kPa	961.4
323.15 K, 33503 kPa	961.3
323.15 K, 33536 kPa	961.6
323.15 K, 33576 kPa	961.4
323.15 K, 33610 kPa	961.5
323.15 K, 33644 kPa	961.5
323.15 K, 33685 kPa	961.5
323.15 K, 33720 kPa	961.6
323.15 K, 33755 kPa	961.5
323.15 K, 33797 kPa	961.6
323.15 K, 33833 kPa	961.5
323.15 K, 33870 kPa	961.6
323.15 K, 33916 kPa	961.7
323.15 K, 33952 kPa	961.7
323.15 K, 33982 kPa	961.7
323.15 K, 34010 kPa	961.8
323.15 K, 34034 kPa	961.7
323.15 K, 34058 kPa	961.7
323.15 K, 34086 kPa	961.7
323.15 K, 34110 kPa	961.8
323.15 K, 34134 kPa	961.8
323.15 K, 34159 kPa	961.8
323.15 K, 34188 kPa	961.9
323.15 K, 34213 kPa	961.9
323.15 K, 34242 kPa	961.8
323.15 K, 34268 kPa	961.9
323.15 K, 34294 kPa	961.8
323.15 K, 34321 kPa	962.1
323.15 K, 34354 kPa	962
323.15 K, 34382 kPa	961.9
323.15 K, 34411 kPa	962
323.15 K, 34448 kPa	962.1
323.15 K, 34472 kPa	961.9
323.15 K, 34473 kPa	962
323.15 K, 34474 kPa	962
323.16 K, 603.67 kPa	941
323.16 K, 875.73 kPa	941.2
323.16 K, 892.76 kPa	941.2
323.16 K, 910.31 kPa	941.3
323.16 K, 929.42 kPa	941.3
323.16 K, 952.34 kPa	941.3
323.16 K, 1561.9 kPa	941.8
323.16 K, 1605.8 kPa	941.7
323.16 K, 1638 kPa	941.7
323.16 K, 1659.1 kPa	941.7
323.16 K, 1674.9 kPa	941.8
323.16 K, 1688.1 kPa	941.8
323.16 K, 2395.8 kPa	942.3
323.16 K, 2562.1 kPa	942.5
323.16 K, 2571.5 kPa	942.4
323.16 K, 2579.5 kPa	942.4
323.16 K, 2587.6 kPa	942.5
323.16 K, 3525.4 kPa	943
323.16 K, 3596.1 kPa	943.1
323.16 K, 3609.1 kPa	943.2
323.16 K, 3622.8 kPa	943.1
323.16 K, 3638.9 kPa	943.2
323.16 K, 3652.2 kPa	943.2
323.16 K, 3663.5 kPa	943.2
323.16 K, 3682.5 kPa	943.1
323.16 K, 3696.6 kPa	943.1
323.16 K, 3864.6 kPa	943.3
323.16 K, 3879.5 kPa	943.3
323.16 K, 3913.1 kPa	943.3
323.16 K, 3928.7 kPa	943.4
323.16 K, 3945.2 kPa	943.3
323.16 K, 3960.6 kPa	943.3
323.16 K, 3976.2 kPa	943.4
323.16 K, 3991.8 kPa	943.3
323.16 K, 4010.5 kPa	943.3
323.16 K, 4025.5 kPa	943.3
323.16 K, 4044.2 kPa	943.5
323.16 K, 4061 kPa	943.5
323.16 K, 4225.4 kPa	943.5
323.16 K, 4242.4 kPa	943.6
323.16 K, 4245.7 kPa	943.5
323.16 K, 4456.7 kPa	943.7
323.16 K, 4480.6 kPa	943.7
323.16 K, 4501.4 kPa	943.6
323.16 K, 4587.3 kPa	943.7
323.16 K, 4633.2 kPa	943.7
323.16 K, 4694.8 kPa	943.8
323.16 K, 4742.6 kPa	943.9
